Results on three molecules are retold here after ChEMBL document CHEMBL5715954, “Silencing c-Myc translation as a therapeutic strategy through targeting PI3Kδ and CK1ε in hematological malignancies” (Blood, 2017).

Parameters in all cases: scale not given: the % may be the effect or the level left
The target in assay [1] is Serine/threonine-protein kinase 10 (Homo sapiens) (UniProt O94804). Description: Inhibition of human LOK/STK10 assessed as enzyme activity at 1 uM using RLGRDKYKTLRQIRQ as substrate preincubated for 20 mins followed by [gamma-33P]-ATP addition and measured after 120 mins by radiometric Hot-SpotSM Kinase assay relative to control.
Serine/threonine-protein kinase 10 (Homo sapiens), sequence (O94804 whole entry, looked up): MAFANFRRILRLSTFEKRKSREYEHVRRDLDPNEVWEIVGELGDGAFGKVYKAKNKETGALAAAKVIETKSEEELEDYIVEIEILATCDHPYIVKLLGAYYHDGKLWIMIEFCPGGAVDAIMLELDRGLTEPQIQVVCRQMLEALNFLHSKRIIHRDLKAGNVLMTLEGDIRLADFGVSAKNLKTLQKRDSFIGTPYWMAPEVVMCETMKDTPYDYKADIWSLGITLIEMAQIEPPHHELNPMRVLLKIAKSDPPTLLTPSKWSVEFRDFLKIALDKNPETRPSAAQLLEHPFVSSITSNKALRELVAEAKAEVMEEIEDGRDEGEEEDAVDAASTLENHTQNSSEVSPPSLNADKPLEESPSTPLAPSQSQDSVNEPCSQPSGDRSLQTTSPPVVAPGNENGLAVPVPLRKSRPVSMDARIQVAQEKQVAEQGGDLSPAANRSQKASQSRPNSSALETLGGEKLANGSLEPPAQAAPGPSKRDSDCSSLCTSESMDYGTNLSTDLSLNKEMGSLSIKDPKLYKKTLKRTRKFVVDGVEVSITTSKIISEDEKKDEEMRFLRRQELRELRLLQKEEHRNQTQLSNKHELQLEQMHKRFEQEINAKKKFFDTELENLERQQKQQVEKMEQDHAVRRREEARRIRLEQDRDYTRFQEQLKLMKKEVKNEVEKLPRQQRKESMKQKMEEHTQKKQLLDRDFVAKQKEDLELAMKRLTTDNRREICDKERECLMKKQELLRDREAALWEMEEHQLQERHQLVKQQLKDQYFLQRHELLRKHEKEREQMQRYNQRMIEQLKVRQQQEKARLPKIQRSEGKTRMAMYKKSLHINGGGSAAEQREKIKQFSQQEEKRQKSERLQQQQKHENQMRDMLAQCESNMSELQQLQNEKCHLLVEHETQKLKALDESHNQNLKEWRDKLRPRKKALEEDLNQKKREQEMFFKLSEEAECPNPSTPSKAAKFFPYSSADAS
Assay [2] deals with T1, Dual serine/threonine and tyrosine protein kinase (Homo sapiens) (UniProt Q6XUX3).
T1 sequence (whole entry): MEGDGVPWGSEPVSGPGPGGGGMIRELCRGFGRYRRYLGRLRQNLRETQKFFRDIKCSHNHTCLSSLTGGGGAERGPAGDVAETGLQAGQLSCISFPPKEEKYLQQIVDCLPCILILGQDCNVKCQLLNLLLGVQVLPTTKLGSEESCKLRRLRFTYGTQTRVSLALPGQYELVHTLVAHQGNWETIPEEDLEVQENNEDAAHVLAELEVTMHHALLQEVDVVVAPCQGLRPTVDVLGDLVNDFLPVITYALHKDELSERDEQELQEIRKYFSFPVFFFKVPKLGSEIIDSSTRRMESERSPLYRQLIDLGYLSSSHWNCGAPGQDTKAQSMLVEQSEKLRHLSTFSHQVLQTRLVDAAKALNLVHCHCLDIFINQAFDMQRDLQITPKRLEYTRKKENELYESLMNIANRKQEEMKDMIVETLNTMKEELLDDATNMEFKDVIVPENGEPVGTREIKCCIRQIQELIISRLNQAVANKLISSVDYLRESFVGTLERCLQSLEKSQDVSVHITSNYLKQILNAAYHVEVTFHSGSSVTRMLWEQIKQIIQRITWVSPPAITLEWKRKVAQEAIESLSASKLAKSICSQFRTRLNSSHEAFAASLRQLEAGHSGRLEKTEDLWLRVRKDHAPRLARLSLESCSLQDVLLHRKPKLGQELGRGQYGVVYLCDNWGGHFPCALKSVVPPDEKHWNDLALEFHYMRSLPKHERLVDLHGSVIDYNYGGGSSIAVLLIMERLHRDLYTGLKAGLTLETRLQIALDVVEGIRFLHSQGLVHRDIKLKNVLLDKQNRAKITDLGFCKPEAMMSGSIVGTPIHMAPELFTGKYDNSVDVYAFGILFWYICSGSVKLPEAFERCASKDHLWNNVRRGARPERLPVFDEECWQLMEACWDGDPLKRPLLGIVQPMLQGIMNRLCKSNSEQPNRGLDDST
Nature of the assay: Inhibition of human RIPK5 assessed as enzyme activity at 1 uM using myelin basic protein as substrate preincubated for 20 mins followed by [gamma-33P]-ATP addition and measured after 120 mins by radiometric Hot-SpotSM Kinase assay relative to control.

Assay [3] concerns the target Macrophage-stimulating protein receptor (Homo sapiens) (UniProt Q04912). Nature of the assay: Inhibition of human RON assessed as enzyme activity at 1 uM using KKSRGDYMTMQIG as substrate preincubated for 20 mins followed by [gamma-33P]-ATP addition and measured after 120 mins by radiometric Hot-SpotSM Kinase assay relative to control.
For assay [4], the target named is T2, Non-receptor tyrosine-protein kinase TNK1 (Homo sapiens) (UniProt Q13470).
T2 sequence (whole entry): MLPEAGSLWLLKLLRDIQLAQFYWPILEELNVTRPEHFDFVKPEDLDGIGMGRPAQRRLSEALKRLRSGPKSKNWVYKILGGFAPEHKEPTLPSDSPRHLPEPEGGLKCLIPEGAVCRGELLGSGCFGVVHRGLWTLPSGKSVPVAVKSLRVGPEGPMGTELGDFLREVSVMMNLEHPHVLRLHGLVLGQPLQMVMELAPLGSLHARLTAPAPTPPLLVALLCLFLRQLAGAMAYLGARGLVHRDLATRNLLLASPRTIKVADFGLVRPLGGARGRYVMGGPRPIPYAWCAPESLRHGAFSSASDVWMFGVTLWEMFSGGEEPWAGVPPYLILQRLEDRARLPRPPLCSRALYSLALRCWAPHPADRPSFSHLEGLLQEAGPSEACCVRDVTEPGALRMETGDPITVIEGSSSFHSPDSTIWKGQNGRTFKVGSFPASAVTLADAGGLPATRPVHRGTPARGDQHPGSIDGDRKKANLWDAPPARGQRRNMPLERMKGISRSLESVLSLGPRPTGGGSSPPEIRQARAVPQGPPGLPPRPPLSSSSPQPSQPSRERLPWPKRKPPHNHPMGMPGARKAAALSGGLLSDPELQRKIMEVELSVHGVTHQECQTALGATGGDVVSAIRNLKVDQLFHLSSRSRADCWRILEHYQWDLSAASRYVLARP
Description: Inhibition of human TNK1 assessed as enzyme activity at 1 uM using poly[Glu:Tyr] (4:1) as substrate preincubated for 20 mins followed by [gamma-33P]-ATP addition and measured after 120 mins by radiometric Hot-SpotSM Kinase assay relative to control.

Assay [5] deals with Vascular endothelial growth factor receptor 2 (Homo sapiens) (UniProt P35968). Description: Inhibition of human KDR assessed as enzyme activity at 1 uM using poly[Glu:Tyr] (4:1) as substrate preincubated for 20 mins followed by [gamma-33P]-ATP addition and measured after 120 mins by radiometric Hot-SpotSM Kinase assay relative to control.
Vascular endothelial growth factor receptor 2 (Homo sapiens), sequence (P35968 whole entry): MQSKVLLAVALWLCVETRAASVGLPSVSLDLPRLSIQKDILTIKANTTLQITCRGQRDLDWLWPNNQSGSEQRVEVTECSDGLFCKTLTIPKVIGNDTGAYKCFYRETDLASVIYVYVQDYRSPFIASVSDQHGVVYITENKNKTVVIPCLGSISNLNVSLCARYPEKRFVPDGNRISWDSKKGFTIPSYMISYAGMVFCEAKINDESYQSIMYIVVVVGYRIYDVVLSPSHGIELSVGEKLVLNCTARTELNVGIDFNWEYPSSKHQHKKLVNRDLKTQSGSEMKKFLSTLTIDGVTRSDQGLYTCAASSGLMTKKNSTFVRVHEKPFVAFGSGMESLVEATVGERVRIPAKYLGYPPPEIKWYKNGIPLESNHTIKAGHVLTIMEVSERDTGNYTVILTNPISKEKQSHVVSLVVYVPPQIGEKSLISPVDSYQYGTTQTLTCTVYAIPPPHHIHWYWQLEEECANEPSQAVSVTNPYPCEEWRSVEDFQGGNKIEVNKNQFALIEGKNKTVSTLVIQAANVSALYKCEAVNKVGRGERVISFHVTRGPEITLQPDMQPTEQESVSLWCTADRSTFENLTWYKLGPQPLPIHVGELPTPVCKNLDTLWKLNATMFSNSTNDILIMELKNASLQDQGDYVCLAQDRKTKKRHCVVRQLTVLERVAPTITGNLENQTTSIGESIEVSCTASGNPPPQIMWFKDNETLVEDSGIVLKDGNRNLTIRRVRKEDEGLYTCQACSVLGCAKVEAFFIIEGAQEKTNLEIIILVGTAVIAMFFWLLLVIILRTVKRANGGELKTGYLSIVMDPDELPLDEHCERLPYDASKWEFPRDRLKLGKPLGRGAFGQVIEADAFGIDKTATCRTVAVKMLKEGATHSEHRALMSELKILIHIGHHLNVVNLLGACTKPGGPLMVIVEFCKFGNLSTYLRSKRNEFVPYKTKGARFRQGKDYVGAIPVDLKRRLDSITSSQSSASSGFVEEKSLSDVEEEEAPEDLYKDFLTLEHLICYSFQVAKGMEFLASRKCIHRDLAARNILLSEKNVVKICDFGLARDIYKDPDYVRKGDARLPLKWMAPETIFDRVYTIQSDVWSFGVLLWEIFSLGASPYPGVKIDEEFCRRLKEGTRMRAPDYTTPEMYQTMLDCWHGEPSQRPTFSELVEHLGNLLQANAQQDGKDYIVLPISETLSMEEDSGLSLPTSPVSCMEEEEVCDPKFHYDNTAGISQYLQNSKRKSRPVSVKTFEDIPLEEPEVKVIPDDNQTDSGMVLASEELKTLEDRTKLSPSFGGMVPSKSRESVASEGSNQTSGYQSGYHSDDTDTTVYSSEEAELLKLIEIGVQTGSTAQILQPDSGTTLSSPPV
Assay [6] deals with T3, Protein kinase C iota type (Homo sapiens) (UniProt P41743).
T3 sequence (whole entry): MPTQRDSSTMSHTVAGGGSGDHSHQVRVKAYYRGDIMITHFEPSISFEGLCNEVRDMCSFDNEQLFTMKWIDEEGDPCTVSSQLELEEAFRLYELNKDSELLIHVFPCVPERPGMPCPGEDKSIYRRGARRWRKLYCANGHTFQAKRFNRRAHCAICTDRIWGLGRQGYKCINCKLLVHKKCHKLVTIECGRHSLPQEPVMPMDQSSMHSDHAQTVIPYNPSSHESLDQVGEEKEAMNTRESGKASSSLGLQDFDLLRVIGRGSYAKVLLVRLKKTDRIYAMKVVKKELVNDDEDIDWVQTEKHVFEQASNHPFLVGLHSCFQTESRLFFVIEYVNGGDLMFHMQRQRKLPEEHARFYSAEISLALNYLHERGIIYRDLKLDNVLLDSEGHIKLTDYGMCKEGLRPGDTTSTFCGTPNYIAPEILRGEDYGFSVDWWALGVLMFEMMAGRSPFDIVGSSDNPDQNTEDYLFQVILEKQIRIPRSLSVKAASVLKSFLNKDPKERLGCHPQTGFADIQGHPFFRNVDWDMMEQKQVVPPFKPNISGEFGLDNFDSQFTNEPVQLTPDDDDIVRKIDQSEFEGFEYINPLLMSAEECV
Description: Inhibition of human PKCiota assessed as enzyme activity at 1 uM using ERMRPRKRQGSVRRRV as substrate preincubated for 20 mins followed by [gamma-33P]-ATP addition and measured after 120 mins by radiometric Hot-SpotSM Kinase assay relative to control.

Assay [7] addresses Aurora kinase B (Homo sapiens) (UniProt Q96GD4). Nature of the assay: Inhibition of human Aurora B assessed as enzyme activity at 1 uM using H-LRRASLG as substrate preincubated for 20 mins followed by [gamma-33P]-ATP addition and measured after 120 mins by radiometric Hot-SpotSM Kinase assay relative to control.

Macrophage-stimulating protein receptor (Homo sapiens), sequence (Q04912 25-304 limits assumed): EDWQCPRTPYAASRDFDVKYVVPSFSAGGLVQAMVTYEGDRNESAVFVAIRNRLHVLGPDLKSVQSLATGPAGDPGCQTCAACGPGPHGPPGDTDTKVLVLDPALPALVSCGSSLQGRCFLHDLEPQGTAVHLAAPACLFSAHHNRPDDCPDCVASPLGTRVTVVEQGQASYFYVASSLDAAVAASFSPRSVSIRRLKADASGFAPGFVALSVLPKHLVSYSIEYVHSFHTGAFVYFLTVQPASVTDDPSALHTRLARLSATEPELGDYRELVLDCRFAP
Macrophage-stimulating protein receptor (Homo sapiens), sequence (Q04912 310-1400 limits assumed): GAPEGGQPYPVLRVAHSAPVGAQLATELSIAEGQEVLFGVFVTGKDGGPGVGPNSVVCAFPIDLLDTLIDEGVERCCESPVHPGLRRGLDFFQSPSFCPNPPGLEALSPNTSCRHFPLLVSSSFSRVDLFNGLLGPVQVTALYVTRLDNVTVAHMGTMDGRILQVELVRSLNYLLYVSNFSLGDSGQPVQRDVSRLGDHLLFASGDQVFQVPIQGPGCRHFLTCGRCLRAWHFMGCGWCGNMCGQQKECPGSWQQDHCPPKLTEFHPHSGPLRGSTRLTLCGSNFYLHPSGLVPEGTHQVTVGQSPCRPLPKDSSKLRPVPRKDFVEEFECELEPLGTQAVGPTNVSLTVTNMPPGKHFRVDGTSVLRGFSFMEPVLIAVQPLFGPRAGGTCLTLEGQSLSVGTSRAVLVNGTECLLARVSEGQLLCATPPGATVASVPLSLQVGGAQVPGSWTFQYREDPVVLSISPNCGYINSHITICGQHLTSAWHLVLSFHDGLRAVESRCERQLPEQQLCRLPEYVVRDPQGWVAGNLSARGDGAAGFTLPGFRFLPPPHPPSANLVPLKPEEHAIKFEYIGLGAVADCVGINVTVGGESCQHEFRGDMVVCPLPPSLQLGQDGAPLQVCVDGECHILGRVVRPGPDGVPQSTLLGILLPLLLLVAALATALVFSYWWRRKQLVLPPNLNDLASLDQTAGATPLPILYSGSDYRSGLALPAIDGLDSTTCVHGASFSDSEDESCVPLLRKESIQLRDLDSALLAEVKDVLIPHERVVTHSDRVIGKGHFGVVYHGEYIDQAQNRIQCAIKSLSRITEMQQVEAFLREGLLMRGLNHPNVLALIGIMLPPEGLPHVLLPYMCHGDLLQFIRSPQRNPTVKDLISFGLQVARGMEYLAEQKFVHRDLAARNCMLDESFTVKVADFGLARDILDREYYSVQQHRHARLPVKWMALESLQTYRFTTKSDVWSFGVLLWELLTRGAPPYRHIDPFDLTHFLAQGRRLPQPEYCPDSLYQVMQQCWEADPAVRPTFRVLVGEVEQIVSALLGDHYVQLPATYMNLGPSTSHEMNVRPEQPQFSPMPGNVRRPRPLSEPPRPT
Aurora kinase B (Homo sapiens), sequence (Q96GD4 whole entry): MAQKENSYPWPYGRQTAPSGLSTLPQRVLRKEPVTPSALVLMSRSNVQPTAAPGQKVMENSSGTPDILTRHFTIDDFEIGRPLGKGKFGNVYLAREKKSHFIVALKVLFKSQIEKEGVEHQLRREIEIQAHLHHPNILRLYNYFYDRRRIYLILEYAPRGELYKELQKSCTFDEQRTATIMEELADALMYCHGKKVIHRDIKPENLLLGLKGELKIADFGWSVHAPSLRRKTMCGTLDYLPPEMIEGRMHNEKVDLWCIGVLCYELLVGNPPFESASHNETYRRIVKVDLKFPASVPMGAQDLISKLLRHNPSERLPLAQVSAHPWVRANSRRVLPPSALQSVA

In the case of `C[C@H](Nc1ncnc2nc[nH]c12)c1cc2cccc(Cl)c2c(=O)n1-c1ccccc1`, the Activity stood at 94.4% in assay [1]; 96% in assay [2]; 103% in assay [3]; 87.5% in assay [4]; 95.9% in assay [5]; 98.2% in assay [6]. Also, in assay [7], the Activity came to 95.6%.

With `CC[C@H](Nc1ncnc2[nH]cnc12)c1nc2cccc(F)c2c(=O)n1-c1ccccc1`, the Activity in assay [1] was 94.4%; in assay [2] it was 90%; in assay [3] it was 108%; in assay [4] it was 86.3%; in assay [5] it was 97.7%; in assay [6] it was 94%. For the same molecule, in assay [7], the Activity was 95.6%.

Turning to `CC(C)Oc1ccc(-c2nn([C@@H](C)c3oc4ccc(F)cc4c(=O)c3-c3cccc(F)c3)c3ncnc(N)c23)cc1F` [UMBRALISIB], the Activity turned out to be 99% in assay [1]; 90.7% in assay [2]; 104% in assay [3]; 88.9% in assay [4]; 101% in assay [5]; 95.7% in assay [6]. In addition, the Activity in assay [7] was 97.2%.
